According to PubChem BioAssay AID2060609 (Molecular Pharmacology Branch, DTP, NCI, 2025):
“And” between values parts separate entries of the source, which are not always exact repeats. Equal values may be shown once.

Tested on: 855422-203-R-J1-PDC complex spheroids, viability
Test: Anticancer human tumor 855422-203-R-J1-PDC patient-derived bladder carcinoma cell line growth inhibition [CLK]
Details: for viability, T/C: stronger effect = lower value
Outline: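 Multi-cell-type spheroids combined patient-derived tumor cells with HUVEC endothelial cells and human mesenchymal stem cells. Paired agents were dosed in half-log steps down from about clinical Cmax, or from 10 microM where Cmax was unknown.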

[1] = curve of first compound, second compound 0.0316 µM
[2] = curve of first compound, second compound 0.1 µM
[3] = curve of first compound, second compound 0.316 µM
[4] = curve of first compound, second compound 1 µM
[5] = curve of first compound, second compound 3.16 µM
[6] = curve of first compound, second compound 10 µM
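Note: spheroids exposed to drugs for seven days before readout.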
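Throughout, for viability, T/C: 100% = DMSO vehicle control wells.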

C=CC(=O)Nc1cc(Nc2nccc(-c3cn(C)c4ccccc34)n2)c(OC)cc1N(C)CCN(C)C + CNC(=O)c1ccc(Nc2nc(OC3CCCC3)c3c(-c4ccc5nc(C)oc5c4)c[nH]c3n2)c(OC)c1
IC50 [1]: > 300 nM | IC50 [2]: 1.17 nM | IC50 [3]: < 0.949 nM | IC50 [4]: < 0.949 nM | IC50 [5]: < 0.949 nM | IC50 [6]: < 0.949 nM | viability, T/C (second compound 0.0316 µM, first compound 0.000949 µM): 108% | viability, T/C (second compound 0.0316 µM, first compound 0.003 µM): 112% | viability, T/C (second compound 0.0316 µM, first compound 0.00949 µM): 109% | viability, T/C (second compound 0.0316 µM, first compound 0.03 µM): 97.1% | viability, T/C (second compound 0.0316 µM, first compound 0.0949 µM): 98.8% | viability, T/C (second compound 0.0316 µM, first compound 0.3 µM): 76.3% | viability, T/C (second compound 0.1 µM, first compound 0.000949 µM): 53.6% | viability, T/C (second compound 0.1 µM, first compound 0.003 µM): 33.9% | viability, T/C (second compound 0.1 µM, first compound 0.00949 µM): 29.3% | viability, T/C (second compound 0.1 µM, first compound 0.03 µM): 29.2% | viability, T/C (second compound 0.1 µM, first compound 0.0949 µM): 28.6% | viability, T/C (second compound 0.1 µM, first compound 0.3 µM): 22.4% | viability, T/C (second compound 0.316 µM, first compound 0.000949 µM): 21.3% | viability, T/C (second compound 0.316 µM, first compound 0.003 µM): 22.4% | viability, T/C (second compound 0.316 µM, first compound 0.00949 µM): 19.1% | viability, T/C (second compound 0.316 µM, first compound 0.03 µM): 21.8% | viability, T/C (second compound 0.316 µM, first compound 0.0949 µM): 24% | viability, T/C (second compound 0.316 µM, first compound 0.3 µM): 20.1% | viability, T/C (second compound 1 µM, first compound 0.000949 µM): 19.4% | viability, T/C (second compound 1 µM, first compound 0.003 µM): 21% | viability, T/C (second compound 1 µM, first compound 0.00949 µM): 27.3% | viability, T/C (second compound 1 µM, first compound 0.03 µM): 23.5% | viability, T/C (second compound 1 µM, first compound 0.0949 µM): 22% | viability, T/C (second compound 1 µM, first compound 0.3 µM): 16.2% | viability, T/C (second compound 3.16 µM, first compound 0.000949 µM): 25.8% | viability, T/C (second compound 3.16 µM, first compound 0.003 µM): 23.1% | viability, T/C (second compound 3.16 µM, first compound 0.00949 µM): 20.8% | viability, T/C (second compound 3.16 µM, first compound 0.03 µM): 21.9% | viability, T/C (second compound 3.16 µM, first compound 0.0949 µM): 21.9% | viability, T/C (second compound 3.16 µM, first compound 0.3 µM): 16.5% | viability, T/C (second compound 10 µM, first compound 0.000949 µM): 19.7% | viability, T/C (second compound 10 µM, first compound 0.003 µM): 21.6% | viability, T/C (second compound 10 µM, first compound 0.00949 µM): 18.3% | viability, T/C (second compound 10 µM, first compound 0.03 µM): 19.1% | viability, T/C (second compound 10 µM, first compound 0.0949 µM): 23.3% | viability, T/C (second compound 10 µM, first compound 0.3 µM): 21.9%

COc1ccc([C@@H](O)c2cc(-c3ncnc4cc(N5CCOCC5)ccc34)c(F)cc2Cl)nn1
viability, T/C (compound 0.0316 µM): 95.2% and 115% | viability, T/C (compound 0.1 µM): 98.5% and 95.4% | viability, T/C (compound 0.316 µM): 105% and 107% | viability, T/C (compound 1 µM): 103% and 85.6% | viability, T/C (compound 3.16 µM): 64.8% and 64.9% | viability, T/C (compound 10 µM): 35.1% and 26.4% | IC50 (curve of compound): 5610 nM and 4900 nM

CC(Nc1ccc2c(c1)OCCn1cc(N3C(=O)OCC3C(F)F)nc1-2)C(N)=O (stereo not drawn) + CN1CCN(c2cc(C(=O)Nc3cc4cc(-c5cnn(C)c5)ccc4cn3)ccn2)CC1
IC50 [1]: 280 nM | IC50 [2]: 242 nM | IC50 [3]: < 31.6 nM | IC50 [4]: < 31.6 nM | IC50 [5]: < 31.6 nM | IC50 [6]: < 31.6 nM | viability, T/C (second compound 0.0316 µM, first compound 0.0316 µM): 88.2% | viability, T/C (second compound 0.0316 µM, first compound 0.1 µM): 66.4% | viability, T/C (second compound 0.0316 µM, first compound 0.316 µM): 46.1% | viability, T/C (second compound 0.0316 µM, first compound 1 µM): 35.4% | viability, T/C (second compound 0.0316 µM, first compound 3.16 µM): 26.4% | viability, T/C (second compound 0.0316 µM, first compound 10 µM): 15.5% | viability, T/C (second compound 0.1 µM, first compound 0.0316 µM): 72.1% | viability, T/C (second compound 0.1 µM, first compound 0.1 µM): 69.4% | viability, T/C (second compound 0.1 µM, first compound 0.316 µM): 40.8% | viability, T/C (second compound 0.1 µM, first compound 1 µM): 30.4% | viability, T/C (second compound 0.1 µM, first compound 3.16 µM): 20.1% | viability, T/C (second compound 0.1 µM, first compound 10 µM): 13.7% | viability, T/C (second compound 0.316 µM, first compound 0.0316 µM): 7.06% | viability, T/C (second compound 0.316 µM, first compound 0.1 µM): 6.03% | viability, T/C (second compound 0.316 µM, first compound 0.316 µM): 4.86% | viability, T/C (second compound 0.316 µM, first compound 1 µM): 2.74% | viability, T/C (second compound 0.316 µM, first compound 3.16 µM): 2.03% | viability, T/C (second compound 0.316 µM, first compound 10 µM): 0.75% | viability, T/C (second compound 1 µM, first compound 0.0316 µM): 0.18% | viability, T/C (second compound 1 µM, first compound 0.1 µM): 0.12% | viability, T/C (second compound 1 µM, first compound 0.316 µM): 0.13% | viability, T/C (second compound 1 µM, first compound 1 µM): 0.11% | viability, T/C (second compound 1 µM, first compound 3.16 µM): 0.07% | viability, T/C (second compound 1 µM, first compound 10 µM): 0.06% | viability, T/C (second compound 3.16 µM, first compound 0.0316 µM): 0.43% | viability, T/C (second compound 3.16 µM, first compound 0.1 µM): 0.67% | viability, T/C (second compound 3.16 µM, first compound 0.316 µM): 0.28% | viability, T/C (second compound 3.16 µM, first compound 1 µM): 0.23% | viability, T/C (second compound 3.16 µM, first compound 3.16 µM): 0.24% | viability, T/C (second compound 3.16 µM, first compound 10 µM): 0.18% | viability, T/C (second compound 10 µM, first compound 0.0316 µM): 0.28% | viability, T/C (second compound 10 µM, first compound 0.1 µM): 0.21% | viability, T/C (second compound 10 µM, first compound 0.316 µM): 0.23% | viability, T/C (second compound 10 µM, first compound 1 µM): 0.3% | viability, T/C (second compound 10 µM, first compound 3.16 µM): 0.29% | viability, T/C (second compound 10 µM, first compound 10 µM): 0.26%

Nc1ccn(C2OC(CO)C(O)C2(F)F)c(=O)n1 (stereo not drawn)
viability, T/C (compound 0.0316 µM): 26.9% and 25.7% | viability, T/C (compound 0.1 µM): 16.5% and 10.8% | viability, T/C (compound 0.316 µM): 17.8% and 15.2% | viability, T/C (compound 1 µM): 15.7% and 11.5% | viability, T/C (compound 3.16 µM): 11.1% and 9.45% | viability, T/C (compound 10 µM): 7.67% and 6.64% | IC50 (curve of compound): < 31.6 nM
